In patent US20150173351A1, “MICROCAPSULE” (priority 2012, published 2015):

Assay: Retention rate of the agriculturally active ingredient after xenon light irradiation (photodegradation)
Format: physicochemical
Conditions: active ingredient alone, air-dried on glass petri dish; xenon light (290 nm cutoff), 0.68 W/m^2 at 340 nm, 8 hours, 35° C.; weight % relative to 5 mg
Method: A method for the calculation of a retention rate of the agriculturally active ingredient defined above is more specifically as follows. First, 250 mg of the agriculturally active ingredient is dissolved in 50 mL of a solvent such as acetone, which can sufficiently dissolve the agriculturally active ingredient and also has high volatility, and 1 mL of the solution is added to a glass petri dish having a diameter of 6 cm using a one-mark pipette, spread entirely over the petri dish, and then air-dried at room temperature. The petri dish is covered with a lid made of quartz glass and then set in a weathering tester (manufactured by Q-Lab Corporation under the trade name of Q-SUN Xenon Accelerated Weathering Tester, Model Xe-3) equipped with a borosilicate filter (manufactured by Q-Lab Corporation under the trade name of Daylight-BB Optical Filter) attached thereto. After irradiation with xenon light under the conditions of an intensity at 340 nm of 0.68 W/m^2 and a temperature of 35° C. (35° C. as measured by an insulated black panel thermometer) for 8 hours, the amount of the agriculturally active ingredient remaining on the petri dish is determined by a known determination method such as high-performance liquid chromatography. It is possible to determine a retention rate by calculating as the weight percentage relative to 5 mg of the agriculturally active ingredient used above. The above agriculturally active ingredient used in the microcapsule of the present invention may be any of an insecticidally active component, a fungicidally active component, and a herbicidally active component, and is not particularly limited. The agriculturally active ingredient includes fenpyrazamine, allethrin, and prallethrin. […] It is preferred to use an agriculturally active ingredient which is solid at normal temperature (25° C.), for example fenpyrazamine.

Compound	retention rate after irradiation with xenon light [%]
C=CCC1=C(C)C(OC(=O)C2C(C=C(C)C)C2(C)C)CC1=O (stereo not drawn) [allethrin]	3.3
C=CCSC(=O)n1c(N)c(-c2ccccc2C)c(=O)n1C(C)C [fenpyrazamine]	28.1
C#CCC1=C(C)C(OC(=O)C2C(C=C(C)C)C2(C)C)CC1=O (stereo not drawn) [prallethrin]	6.4
